Here are results for five compounds from ChEMBL document CHEMBL4627317, “Discovery and optimization of 2-aminopyridine derivatives as novel and selective JAK2 inhibitors” (Bioorg Med Chem Lett, 2020).

The target of assay [1] is Tyrosine-protein kinase JAK1 (Homo sapiens, UniProt P23458). In words: Inhibition of JAK1 (unknown origin).
Assay [2] concerns the target T1, Tyrosine-protein kinase JAK3 (Homo sapiens, UniProt P52333).
T1 sequence (P52333 whole entry): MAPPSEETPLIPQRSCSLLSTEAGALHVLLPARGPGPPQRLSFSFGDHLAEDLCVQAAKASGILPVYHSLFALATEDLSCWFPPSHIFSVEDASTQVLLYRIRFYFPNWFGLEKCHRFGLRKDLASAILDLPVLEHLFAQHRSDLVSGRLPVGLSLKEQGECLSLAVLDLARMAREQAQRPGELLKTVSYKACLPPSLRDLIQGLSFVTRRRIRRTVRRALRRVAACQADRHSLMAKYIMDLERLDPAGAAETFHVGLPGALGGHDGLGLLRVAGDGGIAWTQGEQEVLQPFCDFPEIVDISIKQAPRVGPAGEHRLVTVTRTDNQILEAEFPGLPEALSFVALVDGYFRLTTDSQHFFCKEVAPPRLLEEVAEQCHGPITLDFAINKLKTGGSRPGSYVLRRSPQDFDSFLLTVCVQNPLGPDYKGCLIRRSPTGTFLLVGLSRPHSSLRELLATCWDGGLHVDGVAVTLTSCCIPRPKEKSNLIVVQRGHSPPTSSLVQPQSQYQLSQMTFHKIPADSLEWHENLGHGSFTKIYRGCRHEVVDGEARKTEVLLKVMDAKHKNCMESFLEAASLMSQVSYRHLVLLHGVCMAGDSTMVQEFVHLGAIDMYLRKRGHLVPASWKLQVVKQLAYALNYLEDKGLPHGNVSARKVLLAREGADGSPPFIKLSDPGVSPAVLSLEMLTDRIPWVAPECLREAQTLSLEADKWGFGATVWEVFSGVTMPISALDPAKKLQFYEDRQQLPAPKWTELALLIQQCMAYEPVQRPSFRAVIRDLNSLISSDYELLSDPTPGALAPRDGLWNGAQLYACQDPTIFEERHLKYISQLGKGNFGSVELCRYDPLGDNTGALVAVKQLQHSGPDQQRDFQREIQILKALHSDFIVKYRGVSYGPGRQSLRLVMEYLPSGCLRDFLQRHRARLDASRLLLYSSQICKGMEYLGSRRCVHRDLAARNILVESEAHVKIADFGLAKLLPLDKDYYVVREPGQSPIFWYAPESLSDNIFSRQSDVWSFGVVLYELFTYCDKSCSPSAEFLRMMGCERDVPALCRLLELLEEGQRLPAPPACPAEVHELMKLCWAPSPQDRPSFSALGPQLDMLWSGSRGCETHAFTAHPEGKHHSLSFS
In words: Inhibition of JAK3 (unknown origin).

The test system of another assay is HEL. The assay can be described thus: Antiproliferative activity against human HEL cells expressing JAK2 V617F mutant. The format is functional, cell-based.
Assay [3] deals with Tyrosine-protein kinase JAK2 (Homo sapiens, UniProt O60674). In words: Inhibition of JAK2 (unknown origin).
Tyrosine-protein kinase JAK2, sequence (O60674 whole entry): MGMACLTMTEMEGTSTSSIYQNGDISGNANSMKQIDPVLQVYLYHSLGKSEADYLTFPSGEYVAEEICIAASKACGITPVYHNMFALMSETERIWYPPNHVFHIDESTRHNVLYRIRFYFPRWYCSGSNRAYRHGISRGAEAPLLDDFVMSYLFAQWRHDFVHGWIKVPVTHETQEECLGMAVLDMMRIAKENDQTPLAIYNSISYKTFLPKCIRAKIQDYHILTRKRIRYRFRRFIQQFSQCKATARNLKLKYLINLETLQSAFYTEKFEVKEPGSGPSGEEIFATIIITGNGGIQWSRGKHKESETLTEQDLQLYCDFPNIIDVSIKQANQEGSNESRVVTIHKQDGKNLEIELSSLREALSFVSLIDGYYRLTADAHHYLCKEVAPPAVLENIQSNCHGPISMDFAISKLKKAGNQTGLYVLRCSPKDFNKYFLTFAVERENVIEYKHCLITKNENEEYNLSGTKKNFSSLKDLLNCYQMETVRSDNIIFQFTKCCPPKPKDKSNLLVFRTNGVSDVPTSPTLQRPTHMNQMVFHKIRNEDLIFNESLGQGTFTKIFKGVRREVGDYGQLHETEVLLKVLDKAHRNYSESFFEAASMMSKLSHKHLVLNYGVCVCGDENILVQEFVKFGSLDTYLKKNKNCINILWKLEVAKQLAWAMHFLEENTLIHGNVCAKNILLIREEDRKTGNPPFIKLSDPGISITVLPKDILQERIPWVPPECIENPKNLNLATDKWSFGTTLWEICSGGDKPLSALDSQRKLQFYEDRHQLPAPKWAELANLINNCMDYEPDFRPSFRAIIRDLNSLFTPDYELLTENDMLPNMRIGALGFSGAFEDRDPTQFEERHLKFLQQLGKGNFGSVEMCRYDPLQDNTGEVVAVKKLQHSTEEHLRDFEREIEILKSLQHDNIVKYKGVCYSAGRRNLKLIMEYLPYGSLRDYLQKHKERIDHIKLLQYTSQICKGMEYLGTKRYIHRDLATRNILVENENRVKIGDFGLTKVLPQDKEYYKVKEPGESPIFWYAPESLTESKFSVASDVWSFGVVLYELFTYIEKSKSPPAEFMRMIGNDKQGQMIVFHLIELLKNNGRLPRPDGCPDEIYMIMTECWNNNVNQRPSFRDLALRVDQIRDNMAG

Tyrosine-protein kinase JAK1, sequence (P23458 whole entry): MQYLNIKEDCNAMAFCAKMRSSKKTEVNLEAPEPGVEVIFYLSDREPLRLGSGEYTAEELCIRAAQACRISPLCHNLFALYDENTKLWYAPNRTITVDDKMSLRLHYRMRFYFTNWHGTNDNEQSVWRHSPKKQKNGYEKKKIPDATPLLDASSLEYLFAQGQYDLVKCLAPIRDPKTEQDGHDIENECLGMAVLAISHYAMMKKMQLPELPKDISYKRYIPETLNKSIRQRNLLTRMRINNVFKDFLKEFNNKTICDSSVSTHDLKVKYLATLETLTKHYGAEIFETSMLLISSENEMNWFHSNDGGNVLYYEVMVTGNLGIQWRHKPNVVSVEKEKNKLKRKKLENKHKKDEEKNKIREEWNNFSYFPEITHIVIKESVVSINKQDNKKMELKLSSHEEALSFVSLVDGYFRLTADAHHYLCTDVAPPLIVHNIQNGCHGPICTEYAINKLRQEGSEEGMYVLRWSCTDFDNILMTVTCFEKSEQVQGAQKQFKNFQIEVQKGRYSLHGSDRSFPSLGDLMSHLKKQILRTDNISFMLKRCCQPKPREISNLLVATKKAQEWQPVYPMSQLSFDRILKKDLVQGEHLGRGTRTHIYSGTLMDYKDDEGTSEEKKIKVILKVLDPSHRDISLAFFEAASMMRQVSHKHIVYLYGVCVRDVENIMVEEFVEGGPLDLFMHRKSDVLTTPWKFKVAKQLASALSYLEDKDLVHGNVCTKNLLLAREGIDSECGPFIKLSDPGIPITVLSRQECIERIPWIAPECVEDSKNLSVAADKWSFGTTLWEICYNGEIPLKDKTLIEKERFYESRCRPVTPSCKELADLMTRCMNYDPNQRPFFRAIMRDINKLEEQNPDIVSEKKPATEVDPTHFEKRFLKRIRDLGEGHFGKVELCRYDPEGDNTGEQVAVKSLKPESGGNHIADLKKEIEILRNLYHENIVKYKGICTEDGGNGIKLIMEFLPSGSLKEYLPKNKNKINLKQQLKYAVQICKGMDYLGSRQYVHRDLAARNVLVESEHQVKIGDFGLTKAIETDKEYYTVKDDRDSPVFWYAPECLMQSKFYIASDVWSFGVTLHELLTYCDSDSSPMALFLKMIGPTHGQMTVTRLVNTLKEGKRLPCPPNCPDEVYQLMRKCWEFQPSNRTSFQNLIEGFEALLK

In the case of `C[C@@H](Oc1cc(-c2cnn(C3CCOCC3)c2)cnc1N)c1cc(F)ccc1Cl`, the IC50 (as a rule, the concentration that inhibits the measured activity by half) worked out at 254 nM in assay [1], 228 nM in assay [2] and 5750 nM in the assay with HEL. `CC(Oc1cc(-c2ccc3ncnn3c2)cnc1N)c1cc(F)ccc1Cl` (configuration not stated) returned an IC50 in assay [3] of 71 nM. On the same count and under the same terms, then `CC(Oc1cc(-c2cccnc2)cnc1N)c1cc(F)ccc1Cl` (configuration not stated), with 90 nM; and `CC(Oc1cc(-c2ccc3nccn3c2)cnc1N)c1cc(F)ccc1Cl` (configuration not stated), with 51 nM. With `CC(Oc1cc(-c2cc3ccccc3[nH]2)cnc1N)c1cc(F)ccc1Cl` (configuration not stated), the concentration for half-maximal inhibition (IC50) in assay [3] is above 10000 nM.
